The source of these data is patent publication US12492194B2, “HPK1 inhibitors” (Janssen Pharmaceutica NV, priority 2019, dated 2025).

For one test, the target named is T1, full-length human Hpk1 (Homo sapiens, UniProt Q92918).
T1 construct: A recombinant fusion protein consisting of full-length human Hpk1; GST (N)
Briefly: HPK1 kinase assay (ADP Glo Kinase Assay). Format: biochemical. The note with it: full-length human GST-Hpk1, ADP Glo, 75 μM ATP; read-out: Hpk1 biochemical (pIC50) (converted). Here is the method: Pharmacological Part HPK1 Kinase Assay
A recombinant fusion protein consisting of full-length human Hpk1 with an N-terminal Glutatione S-transferase (GST) tag was produced in a baculovirus/insect cell expression system. GST-Hpk1 protein was purified from cell lysates by glutathione sepharose affinity chromatography. Kinase inhibition was determined using the ADP Glo™ Kinase Assay kit (Promega, V9101). Test compounds were prepared by serial dilution in dimethyl sulfoxide (DMSO) and 0.1 μl of each dilution was spotted onto a 384-well white Proxiplate (Perkin Elmer, 6008289). 8 μl of kinase assay buffer (40 mM Tris pH 7.5, 2 mM dithiothreitol (DTT), 0.05% Bovine Serum Albumin, 5 mM MgCl2) containing Hpk1 protein was transferred to each well and incubated for 30-45 minutes at room temperature. The enzymatic reaction was started by adding 2 μl of kinase assay buffer containing 75 μM ATP. After 120 minutes, the reaction was stopped by adding 3 μl of ADP Glo™ reagent (Promega, V9101) and incubating 45 minutes at room temperature.
(ADP-Glo first removes unused ATP, then detects ADP through luciferase.)

The target of a further test is Hpk1 (Homo sapiens, UniProt Q92918). Description: SLP76 phosphorylation assay (SLP76 pS376 in lysates of HEK293 cells engineered to express Hpk1 and SLP76). The format is cell-based. The note with it: HEK293 cells expressing Hpk1 and SLP76, 4 hours incubation; read-out: pSLP76 (HEK293) (pIC50) (converted). Here is the method:
SLP76 Phosphorylation Assay
Hpk1 inhibition in cells was determined by detection of SLP76 phosphorylation at S376 in lysates from HEK293 cells engineered to express Hpk1 and SLP76. Serial dilutions of test compounds were prepared in cell culture medium and 20 μl was transferred into each well of a 96-well plate containing HEK293 cells in 180 μl of culture medium. After incubation for 4 hours at 37° C./5% CO2, the culture medium was removed, plates were put on ice and cells washed with cold Minimal Essential Medium before lysing in 90 μl of cold Mammalian Protein Extraction Reagent (Thermo Scientific, 78501) for 30 minutes on ice. The cell lysates were transferred to another 96-well plate, centrifuged 10 minutes at 3000 rcf (4° C.) and 30 μl transferred to a 96-well High-bind plate (MSD, L15XB-3). After coating overnight at 4° C., the cell lysate was removed, wells were washed with base buffer (TBS, 0.2% Tween-20), and blocking solution (base buffer containing 3% MSD blocker A) was added to each well for 1 hour at room temperature. The blocking solution was removed, the wells were washed with base buffer, and detection antibody (SLP76 pS376) was added in 25 μl base buffer containing 1% MSD blocker A to each well. After a 2 h incubation at room temperature, the detection antibody was removed, wells were washed four times with base buffer, 25 μl SULFO-TAG labeled goat anti-rabbit secondary antibody (MSD, R32AB-1) in base buffer containing 1% MSD blocker A was added to each well and left for 1 hour at room temperature. Wells were washed 4 times with base buffer, 150 μl Read Buffer T was added to each well, and the plates were read in a Mesoscale plate reader (MSD). IC50 values were determined by curve-fitting the electrochemiluminescent signals obtained from the lysates of HEK293 cells expressing Hpk1 and SLP76 treated with test compounds at various concentrations minus the signal obtained from HEK293 cells expressing SLP76 only.

SMILES strings stand for the structures. Some results are limits rather than exact numbers.

Chain of Hpk1 (Q92918 whole entry): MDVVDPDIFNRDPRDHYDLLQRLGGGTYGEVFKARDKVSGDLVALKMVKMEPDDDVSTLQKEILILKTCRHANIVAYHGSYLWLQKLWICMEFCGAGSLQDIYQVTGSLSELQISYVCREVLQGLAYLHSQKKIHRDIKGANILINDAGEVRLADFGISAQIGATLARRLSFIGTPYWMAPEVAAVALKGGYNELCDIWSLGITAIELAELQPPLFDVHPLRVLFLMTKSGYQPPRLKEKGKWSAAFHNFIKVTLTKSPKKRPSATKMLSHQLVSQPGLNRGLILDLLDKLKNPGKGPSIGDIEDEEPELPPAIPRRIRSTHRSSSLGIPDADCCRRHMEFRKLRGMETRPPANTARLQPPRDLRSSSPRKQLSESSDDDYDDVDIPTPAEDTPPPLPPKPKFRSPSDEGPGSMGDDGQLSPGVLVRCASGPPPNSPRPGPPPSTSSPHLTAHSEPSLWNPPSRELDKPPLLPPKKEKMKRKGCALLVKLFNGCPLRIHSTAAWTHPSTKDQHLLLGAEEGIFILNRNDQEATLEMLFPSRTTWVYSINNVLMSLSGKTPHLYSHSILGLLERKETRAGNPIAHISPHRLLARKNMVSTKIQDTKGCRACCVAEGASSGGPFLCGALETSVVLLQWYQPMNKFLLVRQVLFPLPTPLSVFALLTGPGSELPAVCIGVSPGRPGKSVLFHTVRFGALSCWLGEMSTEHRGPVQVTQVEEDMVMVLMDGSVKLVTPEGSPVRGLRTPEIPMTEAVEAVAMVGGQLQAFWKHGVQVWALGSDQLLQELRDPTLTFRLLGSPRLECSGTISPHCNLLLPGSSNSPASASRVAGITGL
T1 sequence (Q92918 whole entry, the tested form may be a part): as the sequence (Q92918 whole entry) above

Turning to `Nc1ncc(-c2ccc(C3CCOCC3)c([C@@H]3CCCN3)c2)cc1-c1ccncc1F` [Co. 28], the results for the IC50 on full-length human Hpk1 and on Hpk1 were 10.2 nM and 316 nM, respectively.

On to `CC(C)(C#N)c1cc(-c2cc(-c3ccc(C4CCOCC4)c([C@@H]4CCCN4)c3)cnc2N)ccn1` [Co. 29], for which the IC50 on full-length human Hpk1 is 38 nM; on Hpk1 it was 6030 nM.

On to `Nc1ncc(-c2ccc(C3CCOCC3)c([C@@H]3CCCN3)c2)cc1-c1ccncc1Cl` [Co. 30], for which the IC50 was 28.2 nM at full-length human Hpk1 and 490 nM at Hpk1.

As for `Nc1ncc(-c2ccc(C3CCOCC3)c([C@@H]3CCCN3)c2)cc1-c1cc(F)ncc1F` [Co. 31], the IC50 at full-length human Hpk1 is 20.4 nM; at Hpk1 it was 1050 nM.

Regarding `Nc1ncc(-c2ccc(C3CCOCC3)c([C@@H]3CCCN3)c2)cc1-c1cc(F)ncc1Cl` [Co. 32], the IC50 was 28.2 nM on full-length human Hpk1 and 1860 nM on Hpk1.

Regarding `Nc1ncc(-c2ccc(C3CCOCC3)c([C@@H]3CCCN3)c2)cc1-c1ccnnc1` [Co. 33], the IC50 was 14.5 nM at full-length human Hpk1 and 2290 nM on Hpk1.

Take `Nc1ncc(-c2ccc(C3CCOCC3)c([C@@H]3CCCN3)c2)cc1-c1ccnc(C(F)F)c1` [Co. 34]: the IC50 at full-length human Hpk1 was 17.4 nM; on Hpk1, 1820 nM.

As to `Nc1ncc(-c2ccc(C3CCOCC3)c([C@@H]3CCCN3)c2)cc1-c1ccnc(F)c1Cl` [Co. 35], the IC50 was 8.13 nM on full-length human Hpk1 and 676 nM on Hpk1.

As to `N#Cc1ccc(-c2cc(-c3ccc(C4CCOCC4)c([C@@H]4CCCN4)c3)cnc2N)cc1` [Co. 36], the IC50 is 7.94 nM at full-length human Hpk1 and 692 nM on Hpk1.

`Nc1ncc(-c2ccc(C3CCOCC3)c([C@@H]3CCCN3)c2)cc1Br` [Co. 37]: the IC50 at full-length human Hpk1 was 7.24 nM; on Hpk1, 646 nM.

For the molecule `Nc1ncc(-c2ccc(C3CCCCC3)c([C@@H]3CCCN3)c2)cc1-c1ccnc(F)c1` [Co. 38], the IC50 is 7.59 nM on full-length human Hpk1 and 1290 nM on Hpk1.

In the case of `Cc1cc(-c2cc(-c3ccc(C4CCOCC4)c([C@@H]4CCCN4)c3)cnc2N)on1` [Co. 39], the values for the IC50 at full-length human Hpk1 and on Hpk1 were 2.34 nM and 275 nM, respectively.

For the molecule `CC1(C)COc2ncc(-c3cc(-c4ccc(C5CCOCC5)c([C@@H]5CCCN5)c4)cnc3N)cc21` [Co. 40], the values for the IC50 at full-length human Hpk1 and on Hpk1 were 8.91 nM and 1100 nM, respectively.

Consider `Cn1cc(-c2nc(-c3ccc(C4CCOCC4)c([C@@H]4CCCN4)c3)cnc2N)cn1` [Co. 41], for which the IC50 on full-length human Hpk1 is 4.57 nM; at Hpk1, 617 nM.

On to `Nc1ncc(-c2ccc(C3CCOCC3)c([C@@H]3CCCN3)c2)nc1-c1ccncc1` [Co. 42], for which the IC50 at full-length human Hpk1 is 24.5 nM; on Hpk1 it was 2000 nM.

With `Nc1ncc(-c2ccc(C3CCOCC3)c([C@@H]3CCCN3)c2)nc1-c1ccnc(F)c1` [Co. 43], the IC50 at full-length human Hpk1 was 21.4 nM; on Hpk1 it was over 10000 nM.

As for `N#Cc1cc(-c2ccc(C3CCOCC3)c([C@@H]3CCCN3)c2)cnc1N` [Co. 44], the IC50 on full-length human Hpk1 was 9.33 nM; on Hpk1, 339 nM.

In the case of `Nc1ncc(-c2ccc(C3=CCOC3)c([C@@H]3CCCN3)c2)cc1-c1ccnc(F)c1` [Co. 45], the IC50 at full-length human Hpk1 is 41.7 nM; on Hpk1, 1120 nM.

For the molecule `CS(=O)(=O)N1CC=C(c2ccc(-c3cnc(N)c(-c4ccnc(F)c4)c3)cc2[C@@H]2CCCN2)CC1` [Co. 46], the IC50 was 35.5 nM at full-length human Hpk1 and 1020 nM on Hpk1.

For the molecule `CC(=O)N1CC=C(c2ccc(-c3cnc(N)c(-c4ccnc(F)c4)c3)cc2[C@@H]2CCCN2)CC1` [Co. 47], the IC50 was 24.5 nM at full-length human Hpk1 and 1350 nM at Hpk1.

Regarding `Nc1ncc(-c2ccc(C3=CCSCC3)c([C@@H]3CCCN3)c2)cc1-c1ccnc(F)c1` [Co. 48], the IC50 at full-length human Hpk1 was 25.1 nM; at Hpk1 it was 1320 nM.

For `Nc1ncc(-c2ccc(C3=CCS(=O)(=O)CC3)c([C@@H]3CCCN3)c2)cc1-c1ccnc(F)c1` [Co. 49], the IC50 on full-length human Hpk1 was 24 nM; on Hpk1, 2510 nM.

Turning to `Nc1ncc(-c2ccc(C3CCC(F)(F)CC3)c([C@@H]3CCCN3)c2)cc1-c1ccnc(F)c1` [Co. 50], the IC50 is 20 nM on full-length human Hpk1 and 2450 nM on Hpk1.

Turning to `CO[C@H]1CC[C@@H](c2ccc(-c3cnc(N)c(-c4ccnc(F)c4)c3)cc2[C@@H]2CCCN2)CC1` [Co. 51], the IC50 is 18.2 nM on full-length human Hpk1 and 550 nM on Hpk1.

Regarding `Nc1ncc(-c2ccc(C3CC4(COC4)C3)c([C@@H]3CCCN3)c2)cc1-c1ccnc(F)c1` [Co. 52], the IC50 on full-length human Hpk1 is 38.9 nM; on Hpk1, 851 nM.

With `Nc1ncc(-c2ccc(C3CCOCC3)c([C@@H]3CCCN3)c2)nc1C(F)(F)F` [Co. 53], the IC50 was 15.8 nM on full-length human Hpk1 and 977 nM on Hpk1.

For `Nc1ncc(-c2ccc(C3COC3)c([C@@H]3CCCN3)c2)cc1-c1ccnc(F)c1` [Co. 54], the figures for the IC50 at full-length human Hpk1 and on Hpk1 were 457 nM and over 10000 nM, respectively.

On to `Nc1ncc(-c2ccc(C3CCOCC3)c([C@@H]3CCCN3)c2)cc1C1=CCS(=O)(=O)CC1` [Co. 55], for which the IC50 on full-length human Hpk1 is 95.5 nM; on Hpk1, over 10000 nM.

For `Nc1ncc(-c2ccc(C3CCOCC3)c([C@@H]3CCCN3)c2)cc1-c1cc[nH]c(=O)c1` [Co. 57], the IC50 is 26.3 nM at full-length human Hpk1 and over 10000 nM at Hpk1.

As to `N#Cc1ccc(-c2cnc(N)c(-c3ccnc(F)c3)c2)cc1[C@@H]1CCCN1` [Co. 60], the IC50 is 251 nM on full-length human Hpk1 and over 10000 nM on Hpk1.

With `N#Cc1cc(-c2cc(-c3ccc(C4CCOCC4)c([C@@H]4CCCN4)c3)cnc2N)ccn1` [Co. 61], the IC50 on full-length human Hpk1 is 34.7 nM; on Hpk1, 3980 nM.

As for `Nc1ncc(-c2ccc(C3CCOCC3)c([C@@H]3CCCN3)c2)cc1-c1ccc(F)cc1` [Co. 62], the results for the IC50 on full-length human Hpk1 and on Hpk1 were 31.6 nM and 1070 nM, respectively.

In the case of `Nc1ncc(-c2ccc(C3CCOCC3)c([C@@H]3CCCN3)c2)cc1-c1ccnc(C(F)(F)F)c1` [Co. 63], the results for the IC50 at full-length human Hpk1 and on Hpk1 were 58.9 nM and 5370 nM, respectively.

With `[2H]c1cc(-c2cc(-c3ccc(C4CCOCC4)c([C@@H]4CCCN4)c3)cnc2N)ccn1` [Co. 64], the IC50 is 17 nM on full-length human Hpk1 and 380 nM at Hpk1.

On to `[2H]c1cc(-c2cc(-c3ccc(C4CCOCC4)c([C@@H]4CCCN4)c3)cnc2N)cc([2H])n1` [Co. 65], for which the values for the IC50 at full-length human Hpk1 and at Hpk1 were 26.9 nM and 1200 nM, respectively.

For the molecule `Nc1ncc(-c2ccc(C3CCOCC3)c(C3CCCN3)c2)cc1-c1cc[n+]([O-])cc1` (centres unmarked) [Co. 66], the IC50 was 85.1 nM on full-length human Hpk1 and over 10000 nM at Hpk1.

Turning to `CN(C)Cc1cc(-c2cnc(N)c(-c3ccnc(N4CCNCC4)c3)c2)ccc1C1CCOCC1` [Co. 67], the IC50 at full-length human Hpk1 was 46.8 nM; on Hpk1, 1660 nM.

In the case of `Cn1cc(-c2cc(-c3ccc(C4CCOCC4)c([C@@H]4CCCN4)c3)cnc2N)cn1` [Co. 68], the values for the IC50 at full-length human Hpk1 and on Hpk1 were 6.31 nM and 1410 nM, respectively.

For the molecule `Cc1cc(-c2cc(-c3ccc(C4CCOCC4)c(CN(C)C)c3)cnc2N)ccn1` [Co. 70], the values for the IC50 on full-length human Hpk1 and at Hpk1 were 115 nM and 4370 nM, respectively.

Consider `COc1cc(-c2cc(-c3ccc(C4CCOCC4)c(CN(C)C)c3)cnc2N)ccn1` [Co. 71], for which the values for the IC50 on full-length human Hpk1 and at Hpk1 were 41.7 nM and 2040 nM, respectively.

As to `CN(C)Cc1cc(-c2cnc(N)c(-c3ccncc3F)c2)ccc1C1CCOCC1` [Co. 72], the IC50 is 40.7 nM on full-length human Hpk1 and 2290 nM at Hpk1.

Take `CN(C)Cc1cc(-c2cnc(N)c(-c3ccncc3)c2)ccc1C1CCOCC1` [Co. 73]: the IC50 was 42.7 nM at full-length human Hpk1 and 1550 nM on Hpk1.

Consider `CN(C)Cc1cc(-c2cnc(N)c(-c3ccnc(NCCO)c3)c2)ccc1C1CCOCC1` [Co. 74], for which the IC50 on full-length human Hpk1 was 56.2 nM; at Hpk1, 1860 nM.

For the molecule `CN(C)Cc1cc(-c2cnc(N)c(-c3ccnc(NCCCO)c3)c2)ccc1C1CCOCC1` [Co. 75], the IC50 is 41.7 nM at full-length human Hpk1 and 2290 nM at Hpk1.

Turning to `CN(C)Cc1cc(-c2cnc(N)c(-c3ccccc3)c2)ccc1C1CCOCC1` [Co. 76], the IC50 at full-length human Hpk1 was 34.7 nM; at Hpk1, 1950 nM.

`CN(C)Cc1cc(-c2cnc(N)c(-c3ccncn3)c2)ccc1C1CCOCC1` [Co. 77]: the results for the IC50 at full-length human Hpk1 and on Hpk1 were 14.1 nM and 2570 nM, respectively.
